{"source": "patent US8771755B2", "about": "“Preparation and compositions of highly bioavailable zerovalent sulfur and uses thereof” (Nuevas Alternativas Naturales, S.A.P.I. de C.V., priority 2011, dated 2014)", "key": {"[1]": {"assay": "Percentage bioactive sulfur contained in hydrogen sulfide prodrugs", "type": "physicochemical"}, "[2]": {"system": "superoxide formation and expression of p47phox (a subunit of NOX)", "details": "Shukla et al., BJU Int. 2009; cited from earlier work"}, "angiogenesis": {"system": "angiogenesis", "details": "in the drinking water; via increasing VEGF expression; Givvimani et al. 2011; cited from earlier work"}, "[3]": {"system": "pregnant rat uterine contractility", "details": "in vitro, Sidhu et al. 2001; cited from earlier work"}, "[4]": {"details": "comparison substance; cited from earlier work"}, "[5]": {"system": "patients with idiopathic oligoasthenozoospermia", "assay": "Prospective, randomized, double blind study in idiopathic oligoasthenozoospermia, semen analysis", "type": "in vivo, human", "details": "first sample (baseline, before treatment)", "experimental": "A prospective, randomized, double blind study evaluated and approved by the Ethics Committee of the Universidad Autónoma de Nuevo León University Hospital (Monterrey, Mexico) with registration number BR09-001 was conducted. The study included patients who attended the Reproductive Biology Clinic of the University Hospital from July 2009 to September 2010 who desired to be pregnant and met the inclusion criteria. Patients between 20 and 45 years of age with a diagnosis of idiopathic oligoasthenozoospermia wishing to participate in the study after signing informed consent were included. The diagnosis of oligoasthenozoospermia was reached by performing two semen analyses on different dates with an interval of three weeks in between. To make the diagnosis, the results of the semen analyses needed to report less than 25% type A sperm motility or less than 50% type A+B sperm motility as detailed in the World Health Organization Laboratory Manual for the Examination of Human Semen and Semen-Cervical Mucus Interaction, 4th ed. New York: Cambridge University Press, 1999. Type A Motility comprised rapid progression; type B motility comprised medium progression; type C mobility comprised slow or clumsy progression; and type D mobility comprised immotile. Oligozoospermia was defined as a concentration of less than 20 million sperm per milliliter, according to the criteria of the World Health Organization. Oligoasthenozoospermia was defined as the presence of oligozoospermia and asthenozoospermia in the same patient. In each semen analysis, morphology was manually assessed using Kruger strict criteria.\nInfertile patients with normal findings on semen analysis, patients who were chronic smokers or those who had been taking antioxidants in the last 6 months prior to study entry were excluded. Patients with chronic degenerative diseases such as diabetes or high blood pressure or with hormonal abnormalities were also excluded.\nA complete medical history and physical examination was obtained for all patients. All study participants underwent a second semen analysis to confirm the diagnosis after a sexual abstinence of 3 to 5 days. This semen analysis was considered baseline (sample 1). On a second visit this new semen analysis was reviewed to confirm oligoasthenozoospermia and one of the 3 substances to be taken was randomly prescribed for 75 days. The substances given were 1.5 g of hydrogen sulfide prodrug as an antioxidant, 50 mg of resveratrol as an antioxidant, and 1.5 g of microcrystalline cellulose as a placebo.\nRandomization of the substance given to each patient was performed by placing in a drawer at random all the containers having exactly the same color, size, and shape with the three separate substances (hydrogen sulfide prodrug, resveratrol, and placebo) without any kind of reference as to the content. […] The attending physician and the patient were unaware of the contents of the container. […] Each patient was asked to take a container at random and the container number was recorded in the patient's medical record. At the end of the study, before statistical analysis, we obtained the relationship between the numbers on the labels and the contents, grouping patients according to the substance. Each patient was given a treatment adherence form (a patient log) in order to count the days of medication and record adverse events, if these occurred, including the type and frequency.\nThe patients were scheduled one month after starting treatment (third visit) in order to document adverse effects and adherence to treatment.\nIn the next scheduled consultation (fourth visit), carried out 75 days after starting treatment; adherence was verified and adverse effects were reported. For this visit, the patients presented with 3 to 5 days of sexual abstinence for post-treatment semen analysis (sample 2). […]"}, "[6]": {"details": "sulfur capable of being converted into hydrogen sulfide in vivo, prior art prodrugs"}}, "note": "Where two headings read alike, the source gives them in different places.", "data": [{"smiles": "CCCc1nn(C)c2c(=O)[nH]c(-c3cc(S(=O)(=O)N4CCN(CC(=O)Oc5ccc(-c6cc(=S)ss6)cc5)CC4)ccc3OCC)nc12", "note": "[ACS 6]", "values": [{"measurement": "% Bioactive sulfur (w/w)", "setting": "[1]; [6]", "value": "3.5 % (w/w)"}, {"measurement": "inhibition of expression of p47phox", "setting": "[2]", "value": "more than sildenafil citrate"}, {"measurement": "inhibition of superoxide formation", "setting": "[2]", "value": "more than sildenafil citrate"}]}, {"smiles": "O=C(Cc1ccccc1Nc1c(Cl)cccc1Cl)Oc1ccc(-c2cc(=S)ss2)cc1", "note": "[ACS 15]", "values": [{"measurement": "% Bioactive sulfur (w/w)", "setting": "[1]", "value": "6.3 % (w/w)"}]}, {"smiles": "O=C(CCC/C=C\\C[C@@H]1[C@@H](CC[C@@H](O)CCc2ccccc2)[C@H](O)C[C@@H]1O)Oc1ccc(-c2cc(=S)ss2)cc1", "note": "[ACS 67]", "values": [{"measurement": "% Bioactive sulfur (w/w)", "setting": "[1]", "value": "5.3 % (w/w)"}]}, {"smiles": "COc1ccc2c(c1)c(CC(=O)Oc1ccc(-c3cc(=S)ss3)cc1)c(C)n2C(=O)c1ccc(Cl)cc1", "note": "[ATB 343]", "values": [{"measurement": "% Bioactive sulfur (w/w)", "setting": "[1]", "value": "5.6 % (w/w)"}]}, {"smiles": "COc1ccc2cc(C(C)C(=O)Oc3ccc(C(N)=S)cc3)ccc2c1", "note": "(stereo not shown) [ATB 346]", "values": [{"measurement": "% Bioactive sulfur (w/w)", "setting": "[1]; [6]", "value": "8.8 % (w/w)"}]}, {"smiles": "C1COCCN1.COc1ccc(P(=S)(S)N2CCOCC2)cc1", "note": "(stereo not shown) [GYY 4137]", "values": [{"measurement": "% Bioactive sulfur (w/w)", "setting": "[1]", "value": "8.5 % (w/w)"}]}, {"smiles": "[Na+].[Na+].[S-2]", "note": "[Na2S (anhydrous), Na2S]", "values": [{"measurement": "% Bioactive sulfur (w/w)", "setting": "[1]", "value": "41 % (w/w)"}]}, {"smiles": "[Na+].[SH-]", "note": "[NaHS (anhydrous), sodium hydrogen sulfide]", "values": [{"measurement": "angiogenesis", "setting": "angiogenesis", "value": "augmented angiogenesis"}, {"measurement": "uterine spontaneous contractility", "setting": "[3]", "value": "significant dose-dependent decreases"}]}, {"smiles": "[S]", "note": "[Pure alpha- or beta-elemental sulfur, elemental sulfur]", "values": [{"measurement": "solubility in carbon disulfide", "setting": "[4]", "value": "completely soluble"}]}, {"smiles": "Oc1ccc(C=Cc2cc(O)cc(O)c2)cc1", "note": "[Resveratrol, resveratrol]", "values": [{"measurement": "MFR (Mobile Forms Recovery, post sperm capacitation)", "setting": "[5]", "value": "0.40 × 10^6"}, {"measurement": "mean sperm concentration", "setting": "[5]", "value": 10.9, "unit": "million per milliliter"}, {"measurement": "mobile forms recovered (MFR) post-sperm capacitation", "setting": "[5]", "value": 0.40, "unit": "million"}, {"measurement": "Motility A + B (%)", "setting": "[5]; group mean", "value": 14.43, "unit": "%"}, {"measurement": "Normal morphology (%)", "setting": "[5]; group mean", "value": 32.06, "unit": "%"}, {"measurement": "Sperm concentration", "setting": "[5]; group mean", "value": "10.9 × 10^6"}]}, {"smiles": "C[S+]([O-])CCCCN=C=S", "note": "(stereo not shown) [Sulforaphane]", "values": [{"measurement": "% Bioactive sulfur (w/w)", "setting": "[1]; [6]", "value": "18 % (w/w)"}]}]}
